Literature values in US10130578B2, “Topical delivery of skin compositions having low pH” (Johnson & Johnson Consumer Inc., priority 2015, dated 2018).

pKa: 2.9
Substance: Hyaluronic acid
